Results published in patent publication US8946282B2, “Indolin-2-one derivatives as protein kinase inhibitors” (Annji Pharmaceutical Co., Ltd., priority 2012, dated 2015).

Tests used:
[1] = test system: HepG2 human hepatocellular carcinoma cells; experiment: anti-proliferation, SRB colorimetric assay, HepG2; assay type: cell-based; conditions: concentration required for 50% growth inhibition, read-out: IC50 (μM, mean ± S.D.)
Source text: HCT116 human colorectal carcinoma cells (Table 3), HepG2 human hepatocellular carcinoma cells (Table 4), and MV4-11 human acute myelomonocytic leukemia cells (Table 5).

aurora B = aurora B (Homo sapiens, UniProt Q96GD4); experiment: radioisotope-based P81 filter-binding assay, aurora B kinase; assay type: biochemical; conditions: for inhibition at 1 µM: compound at 1.0 μM, mean values (n=2), read-out: percent inhibition of enzyme catalytic activity, Aur B (numbers in parentheses); for IC50: averaged from two independent dose-response curves, read-out: Enzyme assay IC50 Aur B
Chain of aurora B (Q96GD4 whole entry): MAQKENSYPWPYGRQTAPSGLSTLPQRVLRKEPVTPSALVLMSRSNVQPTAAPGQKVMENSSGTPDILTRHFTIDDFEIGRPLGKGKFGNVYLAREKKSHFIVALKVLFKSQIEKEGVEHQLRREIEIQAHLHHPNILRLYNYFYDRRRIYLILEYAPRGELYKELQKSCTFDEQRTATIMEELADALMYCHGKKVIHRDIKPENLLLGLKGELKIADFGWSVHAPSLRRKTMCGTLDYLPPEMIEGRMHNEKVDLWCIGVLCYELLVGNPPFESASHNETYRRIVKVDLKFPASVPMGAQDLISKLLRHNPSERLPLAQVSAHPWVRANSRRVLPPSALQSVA
Experimental: (§1) Compounds of formula (I)-(IV) were evaluated for abilities in inhibiting protein kinases aurora B and FLT-3 activity using radioisotope-based P81 filter-binding assay (Table 1).

[2] = test system: A549 human lung carcinoma cells; experiment: anti-proliferation, SRB colorimetric assay, A549; assay type: cell-based; conditions: concentration required for 50% growth inhibition, read-out: IC50 (μM, mean ± S.D.)
[3] = test system: MV4-11 human acute myelomonocytic leukemia cells; experiment: anti-proliferation, SRB colorimetric assay, MV4-11; assay type: cell-based; conditions: concentration required for 50% growth inhibition
Experimental: HCT116 human colorectal carcinoma cells (Table 3), HepG2 human hepatocellular carcinoma cells (Table 4), and MV4-11 human acute myelomonocytic leukemia cells (Table 5). Cells were treated with the test compound and the concentration required for 50% growth inhibition (IC50) determined by sulfomodamine B (SRB) colorimetric assay.

FLT-3 = molecular target: T1, FLT-3 (Homo sapiens, UniProt P36888); experiment: radioisotope-based P81 filter-binding assay, FLT-3 kinase; assay type: biochemical; conditions: for IC50: averaged from two independent dose-response curves, read-out: Enzyme assay IC50 FLT-3
T1 sequence (P36888 27-993): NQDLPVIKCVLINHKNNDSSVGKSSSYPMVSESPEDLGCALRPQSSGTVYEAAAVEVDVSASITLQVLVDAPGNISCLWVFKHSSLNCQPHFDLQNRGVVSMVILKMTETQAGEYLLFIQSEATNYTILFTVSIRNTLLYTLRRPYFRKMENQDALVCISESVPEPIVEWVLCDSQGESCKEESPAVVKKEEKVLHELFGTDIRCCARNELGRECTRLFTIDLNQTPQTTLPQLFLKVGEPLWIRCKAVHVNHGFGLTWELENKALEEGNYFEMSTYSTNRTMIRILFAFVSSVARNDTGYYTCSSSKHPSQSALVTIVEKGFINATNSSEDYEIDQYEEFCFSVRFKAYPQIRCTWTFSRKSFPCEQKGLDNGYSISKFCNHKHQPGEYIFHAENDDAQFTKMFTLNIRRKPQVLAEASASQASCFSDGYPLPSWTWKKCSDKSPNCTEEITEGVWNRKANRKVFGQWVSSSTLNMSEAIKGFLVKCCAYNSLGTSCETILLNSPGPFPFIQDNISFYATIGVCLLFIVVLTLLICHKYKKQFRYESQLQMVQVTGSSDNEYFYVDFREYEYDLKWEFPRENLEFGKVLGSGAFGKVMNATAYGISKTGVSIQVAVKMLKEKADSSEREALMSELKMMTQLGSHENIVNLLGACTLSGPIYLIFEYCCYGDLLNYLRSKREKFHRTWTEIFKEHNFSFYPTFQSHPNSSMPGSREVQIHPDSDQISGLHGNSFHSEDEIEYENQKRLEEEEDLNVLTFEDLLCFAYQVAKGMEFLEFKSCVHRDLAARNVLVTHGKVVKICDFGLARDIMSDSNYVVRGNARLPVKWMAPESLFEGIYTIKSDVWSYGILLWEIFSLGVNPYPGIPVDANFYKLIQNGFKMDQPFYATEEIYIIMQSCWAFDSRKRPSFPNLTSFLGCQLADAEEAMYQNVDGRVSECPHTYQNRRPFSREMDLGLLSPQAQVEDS
Experimental: as §1

SMILES	IC50 [1]	inhibition at 1 µM (aurora B)	IC50 [2]	IC50 [3]	IC50 (FLT-3)	melting point	IC50 (aurora B)	inhibition at 1 µM (FLT-3; compound at 1.0 μM, mean values (n=2), read-out: percent inhibition of enzyme catalytic activity, FLT-3 (numbers in parentheses))
COc1ccc(C(=O)NC(=O)Nc2ccc3c(c2)/C(=C/c2ccc[nH]2)C(=O)N3)cc1 [D14, (Z)—N-(3-((1H-pyrrol-2-yl)methylene)-2-oxoindolin-5-ylcarbamoyl)-4-methoxybenzamide]	0.64 ± 0.01 µM	39.3%	0.73 ± 0.02 µM	0.07 nM	201 nM	285 to 290 °C (dec.)	–	–
COc1ccc(C(=O)NC(=O)Nc2ccc3c(c2)NC(=O)/C3=C\c2ccc[nH]2)cc1 [D15]	0.96 ± 0.03 µM	–	–	6.13 nM	334 nM	–	14.9 nM	–
COc1ccc(C(=O)NC(=O)Nc2cccc3c2NC(=O)/C3=C\c2ccc[nH]2)cc1 [D16, (Z)—N-(3-((1H-pyrrol-2-yl)methylene)-2-oxoindolin-7-ylcarbamoyl)-4-methoxybenzamide]	0.84 ± 0.01 µM	7.3%	0.99 ± 0.08 µM	–	–	253 to 258 °C (dec.)	–	6.9%
O=C(NC(=O)c1ccccc1)Nc1ccc2c(c1)NC(=O)/C2=C\c1ccc[nH]1 [D24, (Z)—N-(3-((1H-pyrrol-2-yl)methylene)-2-oxoindolin-6-ylcarbamoyl)benzamide]	0.89 ± 0.03 µM	–	–	–	> 10000 nM	290 to 295 °C (dec.)	5.3 nM	–
O=C(NC(=O)c1ccc(Cl)cc1)Nc1ccc2c(c1)NC(=O)/C2=C\c1ccc[nH]1 [D25, (Z)—N-(3-((1H-pyrrol-2-yl)methylene)-2-oxoindolin-6-ylcarbonamoyl)-4-chlorobenzamide]	0.94 ± 0.03 µM	–	–	6.14 nM	676 nM	280 to 285 °C (dec.)	6.5 nM	–
O=C(NC(=O)c1ccc(Cl)c(Cl)c1)Nc1ccc2c(c1)NC(=O)/C2=C\c1ccc[nH]1 [D26, (Z)—N-(3-((1H-pyrrol-2-yl)methylene)-2-oxoindolin-6-ylcarbamoyl)-3,4-dichlorobenzamide]	0.63 ± 0.04 µM	–	–	1.13 nM	> 1000 nM	295 to 300 °C (dec.)	7.7 nM	–
O=C(NC(=O)c1ccc(C(F)(F)F)cc1)Nc1ccc2c(c1)NC(=O)/C2=C\c1ccc[nH]1 [D27, (Z)—N-(3-((1H-pyrrol-2-yl)methylene)-2-oxoindolin-6-ylcarbamoyl)-4-(trifluoromethyl)benzamide]	0.86 ± 0.02 µM	–	–	–	> 1000 nM	> 300 °C	40.9 nM	–
Cc1ccc(C(=O)NC(=O)Nc2ccc3c(c2)NC(=O)/C3=C\c2ccc[nH]2)cc1 [D29, (Z)—N-(3-((1H-pyrrol-2-yl)methylene)-2-oxoindolin-6-ylcarbamoyl)-4-methylbenzamide]	0.93 ± 0.01 µM	–	–	–	> 1000 nM	290 to 295 °C (dec.)	18.4 nM	–
COc1cc(OC)cc(C(=O)NC(=O)Nc2ccc3c(c2)NC(=O)/C3=C\c2ccc[nH]2)c1 [D30]	0.86 ± 0.02 µM	–	–	–	–	276 to 281 °C (dec.)	29.8 nM	–
CN(C)c1ccc(C(=O)NC(=O)Nc2ccc3c(c2)NC(=O)/C3=C\c2ccc[nH]2)cc1 [D31, (Z)—N-(3-((1H-pyrrol-2-yl)methylene)-2-oxoindolin-6-ylcarbamoyl)-4-(dimethylamino)benzamide]	0.63 ± 0.02 µM	–	–	–	134 nM	285 to 290 °C (dec.)	159 nM	–
Cc1[nH]c(/C=C2\C(=O)Nc3cc(NC(=O)NC(=O)c4ccc(Cl)cc4)ccc32)c(C)c1C(=O)O [D33, (Z)-5-((6-(3-(4-chlorabenzoyl)ureido)-2-oxoindolin-3-ylidene)-methyl)-2,4-dimethyl-1H-pyrrole-3-carboxylic acid]	0.65 ± 0.05 µM	–	–	–	506 nM	> 300 °C	3.1 nM	–
Cc1[nH]c(/C=C2\C(=O)Nc3cc(NC(=O)NC(=O)c4ccc(Cl)c(C(F)(F)F)c4)ccc32)c(C)c1C(=O)O [D36, (Z)-5-((6-(3-(4-chloro-3-(trifluoromethyl)benzoyl)ureido)-2-oxoindolin-3-ylid-ene)methyl)-2,4-dimethyl-1H-pyrrol-3-carboxylic acid]	0.12 ± 0.07 µM	–	–	–	51.6 nM	270 to 275 °C	10.7 nM	–
Cc1[nH]c(/C=C2\C(=O)Nc3cc(NC(=O)NC(=O)c4ccc(Cl)c(C(F)(F)F)c4)ccc32)c(C)c1CCC(=O)O [D37, (Z)-3-(5-((6-(3-(4-chloro-3-(trifluoromethyl)benzoyl)ureido)-2-oxo-indolin-3-ylidene)methyl)-2,4-dimethyl-1H-pyrrol-3-yl)propanoic acid]	0.09 ± 0.04 µM	–	–	–	2.4 nM	–	1.6 nM	–
Cc1ccc(C(=O)NC(=O)Nc2ccc3c(c2)NC(=O)/C3=C\c2[nH]c(C)c(C(=O)O)c2C)cc1 [D39, (Z)-2,4-dimethyl-5-((6-(3-(4-methylbenzoyl)ureido)-2-oxoindolin-3-ylidene)-methyl)-1H-pyrrole-3-carboxylic acid]	0.63 ± 0.21 µM	–	0.77 ± 0.11 µM	7.21 nM	265 nM	295 to 300 °C (dec.)	2.5 nM	–
COc1ccc(C(=O)NC(=O)Nc2ccc3c(c2)NC(=O)/C3=C\c2[nH]c(C)c(C(=O)O)c2C)cc1 [D41, (Z)-5-((6-(3-(4-methoxybenzoyl)ureido)-2-oxoindolin-3-ylidene)-methyl)-2,4-di-methyl-1H-pyrrole-3-carboxylic acid]	0.73 ± 0.13 µM	–	0.48 ± 0.05 µM	–	180 nM	–	1.9 nM	–
O=C(CC(=O)Nc1ccc2c(c1)NC(=O)/C2=C\c1ccc[nH]1)Nc1ccc(F)cc1 [D75, (Z)—N^1-(3-((1H-pyrrol-2-yl)methylene)-2-oxoindolin-6-yl)-N^3-(4-fluorophenyl)malonamide]	–	–	0.69 ± 0.05 µM	–	–	–	25 nM	–
Cc1[nH]c(/C=C2\C(=O)Nc3cc(NC(=O)N4CCN(C5CC5)C4=O)ccc32)c(C)c1CC(=O)O [D97, (Z)-2-(5-((6-(3-cyclopropyl-2-oxoimidazolidine-1-carboxamido)-2-oxoindolin-3-ylidene)methyl)-2,4-dimethyl-1H-pyrrol-3-yl)acetic acid]	0.87 ± 0.05 µM	–	0.83 ± 0.04 µM	–	113 nM	–	2.7 nM	–
O=C1Nc2cc(NC(=O)c3c[nH]cc(-c4ccccc4)c3=O)ccc2/C1=C/c1ccc[nH]1 [D127]	–	–	0.49 ± 0.03 µM	7.18 nM	27.7 nM	> 300 °C	38.8 nM	–
O=C1Nc2cc(NC(=O)c3c[nH]cc(-c4ccc(F)cc4)c3=O)ccc2/C1=C/c1ccc[nH]1 [D129, (Z)—N-(3-((1H-pyrrol-2-yl)methylene)-2-oxoindolin-6-yl)-5-(4-fluorophenyl)-4-oxo-1,4-dihydropyridine-3-carboxamide]	–	–	0.45 ± 0.07 µM	1.83 nM	38.1 nM	> 300 °C	128 nM	–
Cc1cc(C)c(/C=C2\C(=O)Nc3cc(NC(=O)c4c[nH]cc(-c5ccc(F)cc5)c4=O)ccc32)[nH]1 [D140, (Z)—N-(3-((3,5-dimethyl-1H-pyrrol-2-yl)methylene)-2-oxoindolin-6-yl)-5-(4-fluorophenyl)-4-oxo-1,4-dihydropyridine-3-carboxamide]	0.56 ± 0.02 µM	–	–	12.8 nM	86.6 nM	> 300 °C	179 nM	–
COc1ccc(-c2c[nH]cc(C(=O)Nc3ccc4c(c3)NC(=O)/C4=C\c3[nH]c(C)c(C(=O)NCCN4CCCC4)c3C)c2=O)cc1 [D156, (Z)—N-(3-((3,5-dimethyl-4-((2-(pyrrolidin-1-yl)ethyl)carbamoyl)-1H-pyrrol-2-yl)methylene)-2-oxoindolin-6-yl)-5-(4-methoxyphenyl)-4-oxo-1,4-dihydropyridine-3-carboxamide]	–	–	–	2.57 nM	11.6 nM	> 300 °C	19.2 nM	–
